{"source": "patent US8846066B2", "about": "“Methods and related compositions for reduction of fat and skin tightening” (The Regents of the University of California, priority 2004, dated 2014)", "key": {"[1]": {"system": "immortalized melanocyte cell lines", "assay": "Killing by DC after pre-incubation with human lipoma fat, series of cell lines", "format": "cell-based", "conditions": "0.1% DC pre-incubated with human lipoma fat", "experimental": "The experiment was performed on a series of immortalized melanocyte cell lines. Resected human lipomas were ground up, and DC-containing media was mixed with the human fat and agitated for 24 hours. The material was centrifuged to pellet insoluble contents. The supernatants were then added on top of cultured melanocytes. Control was the identical DC-containing media not exposed to the fat chunks. Also, fat alone (no media) was added as a control.\nBut it is evident in this experiment that the presence of the fat limits the killing properties of DC, may be by direct inhibition (like PC) or by sequestration (i.e., into the fat pellet). This can further explain the observation that injection of DC into fat spares the surrounding tissues."}, "[2]": {"system": "porcine skin (epidermis, dermis, subcutaneous tissue, muscle)", "assay": "Histology of full thickness porcine skin after injection", "conditions": "0.5 mL stock reagent injected, one hour at 37° C., H&E", "experimental": "Histology was performed by injecting stock reagent solutions (0.5 mL) into full thickness porcine skin at various levels (epidermis, dermis, and subcutaneous tissue) with 1.0 mL syringes and 30-gauge, 0.5 inch needles. Needle depth was visualized along the margin of the porcine tissue with the intent of saturating the target tissue. One hour after incubation with PBS at 37° C., multiple 5.0 mm biopsy specimens were obtained from the injected sites, each condition performed in triplicate. Tissue was fixed in formaldehyde, paraffin-embedded, and stained with hematoxylin-eosin. Specimens were evaluated by a board-certified dermatopathologist who was blinded to the treatment protocol."}, "[3]": {"system": "porcine fat tissue", "assay": "MTS assay in fresh porcine fat specimens", "format": "cell-based", "conditions": "PBF or 5% solutions, 4 hours", "experimental": "To measure cell viability after detergent treatment, HaCaT human keratinocyte cells were cultured in DMEM (Dulbecco's modified Eagle's medium) supplemented with 10% fetal calf serum, penicillin, and streptomycin. […] Cell viability was determined by an absorbance spectrophotometer (at 490 nm) after 4 hour incubation with the assay at 37° C. To determine cell viability in fresh tissue, fat specimens were incubated for 4 hours in 24 well plates with stock reagents and the MTS assay. Tissue specimens were then visualized for color change and the amount of MTS in their supernatants was measured by absorbance (at 490 nm). All studies were performed in triplicate. Absorbance at 490 nm (OD 490) is proportional to the number of living cells in the culture.\nPorcine tissue was obtained immediately after sacrifice, shaved, and placed on ice for a maximum of four hours before use. […] Calcein retention was determined by tissue fluorescence using purple (411 nm) light and visually observing the emitted green (500 nm) light using an emission filters.\nFresh porcine skin was used to determine if the effects of these detergent substances on cultured cells were similar in tissue. […] The difference in fat cell viability between the solutions was quantified by measuring the absorbance (at 490) of the supernatants collected from the treated fat specimens (FIG. 3b). […]"}, "[4]": {"system": "Melanocytes (A375P melanoma cell line)", "assay": "MTS survival of melanocytes after DC with or without 1% PC", "format": "cell-based", "conditions": "30 min; for Melanocytes surviving in DC only: MTS OD 490 nm, single wells; for Average (DC only): mean MTS OD 490 nm", "experimental": "Melanocytes in melanocyte media on a 96-well dish were differentiated at 37° C. in a humidified, 5% CO2 incubator for a week. Media was aspirated and washed with 1×PBS once. Cells were treated with different concentrations of DC (from 0 to 0.5%) with or without 1% PC in 1×PBS. Each treatment was done in triplicates (Table 4). The plates were incubated at 37° C. in a humidified, 5% CO2 incubator for 30 min. The incubated plates were aspirated and washed with 1×PBS.\n10 mL of MTS (3-(4,5-dimethyl-2-yl)-5-(3-carboxymethoxyphenyl)-2-(4-sulfophenyl)-2H-tetrazolium, inner salt) assay solution was prepared (mixed 40 uL MTS (Promega, Madison Wis.) […]). 100 ul of MTS solution was added to each well of the plates. The plates were incubated at 37° C. incubator (non-hunified) for 120 min. OD was taken with spectrophotometer at 490 nm.\nFIG. 7 illustrates the survival of melanocytes in sodium deoxycholate solution and sodium deoxycholate with 1% phosphatidylcholine solution. A375P is a melanoma cell line (P represents poorly metastatic). On y-axis, 1 represents 100% survival when no DC is added. All % concentrations are w/v %. […] The addition of sodium deoxycholate with 1% phosphatidylcholine solution increases the LD50 by ˜5-6 fold."}, "[5]": {"system": "primary adipocytes", "assay": "MTS survival of adipocytes after DC with or without 1% PC", "format": "cell-based, human", "conditions": "30 min; for Adipocytes surviving in DC only: MTS OD 490 nm, single wells; for Average (DC only): mean MTS OD 490 nm", "experimental": "Adipocytes in adipocyte media on a 96-well dish were differentiated at 37° C. in a humidified, 5% CO2 incubator for a week. Media was aspirated and washed with 1×PBS once. Cells were treated with different concentrations of DC (from 0 to 0.5%) with or without 1% PC in 1×PBS. Each treatment was done in triplicates (Table 5). The plates were incubated at 37° C. in a humidified, 5% CO2 incubator for 30 min. The incubated plates were aspirated and washed with 1×PBS.\n10 mL of MTS (3-(4,5-dimethyl-2-yl)-5-(3-carboxymethoxyphenyl)-2-(4-sulfophenyl)-2H-tetrazolium, inner salt) assay solution was prepared (mixed 40 uL MTS (Promega, Madison Wis.) per 1 mL 1×PBS). 100 ul of MTS solution was added to each well of the plates. The plates were incubated at 37° C. incubator (non-humidified) for 120 min. OD was taken with spectrophotometer at 490 nm.\nFIG. 8 illustrates the survival of adipocytes in sodium deoxycholate solution and sodium deoxycholate with 1% phosphatidylcholine solution. The adipocyte cells are primary (i.e., taken freshly from a person) adipocytes, cultured in vitro to maturity before treatment with DC. On y-axis, 1 represents 100% survival when no DC is added. All % concentrations are w/v %. […] The addition of sodium deoxycholate with 1% phosphatidylcholine solution increases the LD50 by ˜5-6 fold."}}, "note": "Several values for one entry are separate records, joined by “and”; a condition that tells them apart may be missing. Equal entries are not always repeated.", "data": [{"smiles": "C[C@H](CCC(=O)[O-])[C@H]1CC[C@H]2[C@@H]3CC[C@@H]4C[C@H](O)CC[C@]4(C)[C@H]3C[C@H](O)[C@]12C.[Na+]", "note": "[DC, sodium deoxycholate]", "values": [{"measurement": "effect of pre-incubation with fat on killing", "setting": "[1]", "value": "appears to reduce killing"}, {"measurement": "histologic changes in epidermis, dermis, adnexal structures", "setting": "[2]", "value": "no apparent affect"}, {"measurement": "histologic changes in fat", "setting": "[2]", "value": "Marked blurring and dissolution of adipocyte cell membranes"}, {"measurement": "fat cell viability (MTS purple dye, absorbance at 490)", "setting": "[3]", "value": "comparable loss of purple dye"}, {"measurement": "Melanocytes surviving in DC only", "setting": "[4]; DC 0.001 (w/v %)", "value": "0.158 and 0.148 and 0.16"}, {"measurement": "Melanocytes surviving in DC only", "setting": "[4]; DC 0.005 (w/v %)", "value": "0.128 and 0.109 and 0.103"}, {"measurement": "Melanocytes surviving in DC only", "setting": "[4]; DC 0.01 (w/v %)", "value": "0.124 and 0.107 and 0.106"}, {"measurement": "Melanocytes surviving in DC only", "setting": "[4]; DC 0.05 (w/v %)", "value": "0.056 and 0.038 and 0.048"}, {"measurement": "Melanocytes surviving in DC only", "setting": "[4]; DC 0.1 (w/v %)", "value": "0.009 and 0.014 and 0.016"}, {"measurement": "Average (DC only)", "setting": "[4]; DC 0.001 (w/v %)", "value": 0.1553}, {"measurement": "Average (DC only)", "setting": "[4]; DC 0.005 (w/v %)", "value": 0.1133}, {"measurement": "Average (DC only)", "setting": "[4]; DC 0.01 (w/v %)", "value": 0.1123}, {"measurement": "Average (DC only)", "setting": "[4]; DC 0.05 (w/v %)", "value": 0.04733}, {"measurement": "Average (DC only)", "setting": "[4]; DC 0.1 (w/v %)", "value": 0.013}, {"measurement": "Average (DC only)", "setting": "[4]; DC 0.5 (w/v %)", "value": 0.004}, {"measurement": "LD50 (concentration at which 50% of the cells are dead)", "setting": "[4]; melanocyte cell line, w/v %", "value": "around 0.04%"}, {"measurement": "Adipocytes surviving in DC only", "setting": "[5]; DC 0.01 (w/v %)", "value": "0.067 and 0.133 and 0.13"}, {"measurement": "Adipocytes surviving in DC only", "setting": "[5]; DC 0.05 (w/v %)", "value": "0.01 and 0.009 and 0.008"}, {"measurement": "Adipocytes surviving in DC only", "setting": "[5]; DC 0.1 (w/v %)", "value": 0}, {"measurement": "Adipocytes surviving in DC only", "setting": "[5]; DC 0.5 (w/v %)", "value": 0}, {"measurement": "LD50 (concentration at which 50% of the fat cells are dead)", "setting": "[5]; adipocytes, w/v %", "value": "around 0.02%"}, {"measurement": "Average (DC only)", "setting": "[5]; DC 0.005 (w/v %)", "value": 0.111}, {"measurement": "Average (DC only)", "setting": "[5]; DC 0.01 (w/v %)", "value": 0.131}, {"measurement": "Average (DC only)", "setting": "[5]; DC 0.05 (w/v %)", "value": 0.09}, {"measurement": "Average (DC only)", "setting": "[5]; DC 0.1 (w/v %)", "value": 0}, {"measurement": "Average (DC only)", "setting": "[5]; DC 0.5 (w/v %)", "value": 0}]}]}
